Assays:
[1] = xn = mol fraction of the nth substance listed; settings: 101 kPa, Liquid
[2] = refractive index (Na D-line) (dimensionless); xn = mol fraction of the nth substance listed; settings: 101 kPa, Liquid

COc1ccccc1 [anisole] + CCOC(=O)C(=O)OCC
x1 = 1
Settings	mass density, 298.15 K [kg/m3]	mass density, 303.15 K [kg/m3]	mass density, 308.15 K [kg/m3]	refractive index, 298.15 K	refractive index, 303.15 K	refractive index, 308.15 K	speed of sound, 298.15 K [m/s]	viscosity, 298.15 K [mPa·s]	viscosity, 303.15 K [mPa·s]	viscosity, 308.15 K [mPa·s]
[1]	988.9	984.1	979.4	–	–	–	1410	0.992	0.918	0.853
[2]	–	–	–	1.5148	1.5124	1.5092	–	–	–	–

CCOC(=O)C(=O)OCC [diethyl ethanedioate] + COc1ccccc1
Settings	mass density, 298.15 K [kg/m3]	mass density, 303.15 K [kg/m3]	mass density, 308.15 K [kg/m3]	refractive index, 298.15 K	refractive index, 303.15 K	refractive index, 308.15 K	speed of sound, 298.15 K [m/s]	viscosity, 298.15 K [mPa·s]	viscosity, 303.15 K [mPa·s]	viscosity, 308.15 K [mPa·s]
[1], x2 = 0	1072.3	1066.6	1060.7	–	–	–	1267	1.844	1.659	1.508
[1], x2 = 0.1017	1065.8	1060.1	1054.3	–	–	–	1280	1.732	1.578	1.424
[1], x2 = 0.1976	1059.5	1053.8	1048.1	–	–	–	1293	1.64	1.497	1.354
[1], x2 = 0.2978	1052.6	1047.1	1041.4	–	–	–	1307	1.55	1.416	1.282
[1], x2 = 0.3621	1047.7	1042.3	1036.7	–	–	–	1316	1.495	1.367	1.239
[1], x2 = 0.4971	1037.4	1031.9	1026.5	–	–	–	1334	1.38	1.265	1.149
[1], x2 = 0.5975	1029.1	1023.8	1018.5	–	–	–	1348	1.301	1.195	1.089
[1], x2 = 0.6977	1020.1	1014.9	1009.7	–	–	–	1362	1.223	1.126	1.03
[1], x2 = 0.8016	1010.1	1005.3	1000	–	–	–	1377	1.14	1.054	0.968
[1], x2 = 0.9007	999.9	995.4	990.2	–	–	–	1393	1.061	0.985	0.91
[2], x2 = 0	–	–	–	1.4084	1.4061	1.4039	–	–	–	–
[2], x2 = 0.1017	–	–	–	1.4171	1.4148	1.4124	–	–	–	–
[2], x2 = 0.1976	–	–	–	1.4257	1.4232	1.4207	–	–	–	–
[2], x2 = 0.2978	–	–	–	1.435	1.4325	1.43	–	–	–	–
[2], x2 = 0.3621	–	–	–	1.4412	1.4388	1.4362	–	–	–	–
[2], x2 = 0.4971	–	–	–	1.4551	1.4525	1.4499	–	–	–	–
[2], x2 = 0.5975	–	–	–	1.466	1.4634	1.4607	–	–	–	–
[2], x2 = 0.6977	–	–	–	1.4773	1.4746	1.4718	–	–	–	–
[2], x2 = 0.8016	–	–	–	1.4896	1.4868	1.484	–	–	–	–
[2], x2 = 0.9007	–	–	–	1.5021	1.4991	1.4962	–	–	–	–

— the NIST ThermoML archive (doi:10.1021/je049610v)
